Common to all, as to format: in vivo, mouse
For data set [1], the system named is CBA/J mice. Nature of the data set: Cisplatin-plus-furosemide-induced hearing loss: ABR threshold shifts. The conditions noted are these: CDDP 2.5-4 mg/kg plus furosemide 200 mg/kg IP; measured on day 7 and on day 14 post treatment.
Data set [2] in a line: Body weight and survival with CDDP treatment. As for the experimental part: There is no difference in auditory threshold shifts between CDDP 2.5-4 mg/kg with 55-60 dB shifts when measured on day 7 and on day 14 post treatment. […] This model was used to test the effect of AMPKα siRNA.
Body weight was measured before treatment, on treatment days, and 7 and 14 d post treatment. […] Data are presented as means±SD. CDDP2 mg/kg: n=2, CDDP 2.5 mg/kg: n=5, CDDP 3 mg/kg: n=2, CDDP 4 mg/kg: n=3.

Data set [3] relates to CBA/J mice. Nature of the data set: Kanamycin-plus-furosemide-induced hearing loss: ABR threshold shifts. The conditions noted are these: 8, 16, and 32 kHz; for hearing loss / auditory threshold shifts (in words): single treatment, KM 800 mg/kg SQ and/or Fu 200 mg/kg IP, 14 d after the injections; for KM-furosemide-induced auditory threshold shifts: 14 d after the injection.

For data set [4], the system named is CBA/J mice. The data set can be described thus: Kanamycin-furosemide-induced damage to OHC function: DPOAE. Particulars: siRNA pretreatment via PSC; 14 d after the injection.
Data set [5] concerns CaMKKβ. Nature of the data set: Silencing efficiency: CaMKKβ immunolabeling in OHCs after siRNA delivery. The conditions noted are these: basal turn, 22-32 kHz. The source says:
(§1) siCaMKKβ (Thermo Fisher, #n437808) (sense: […] SEQ ID NO: 1; antisense […] SEQ ID NO: 2) or siControl (Thermo Fisher, #4390844) was locally delivered via intra-tympanic application onto the RWM as previously described (Oishi et al., 2013; Hill et al., 2016) or via PSC to the endolymph based on reports (Guo, 2018 #3975; Tao, 2018 #3973). Briefly, after anesthesia, a retroauricular incision was made to approach the temporal bone. For intra-tympanic delivery onto the RWM, the otic bulla was identified ventral to the facial nerve and a shallow hole was made in the thin part of the otic bulla with a 30-G needle and enlarged with forceps to a diameter of 2 mm in order to visualize the round window. […]
Immunohistochemistry is well accepted as a semi-quantitative methodology when used with careful consideration of the utility and semi-quantitative nature of these assays (Taylor, 2006 #3978; Walker, 2006 #3979). The specificity of antibodies must be first detected by Western blot analysis. Antibodies showing only a single band with the correct molecular weight were used for immunolabeling on surface preparations and quantification of signaling in OHCs. […] The grayscale value was determined in only the hair cells to quantify the change in fluorescence intensity. This procedure provided quantitative measurements that are not confounded by protein expression in other cell types of the cochlea. […]

Data set [6] concerns OHC mechanotransduction channels. The data set can be described thus: FM1-43 uptake into OHCs (mechanotransduction channel function). The conditions noted are these: siRNA delivered through the PSC 48 h before application of FM1-43. As for the experimental part:
Since aminoglycoside antibiotics are known to enter outer hair cells (OHCs) mainly through mechanotransduction channels (MTCs), to address if protective effects of pretreatment with siCaMKKβ is due to blockade of kanamycin and/or furosemide entering OHCs, we assessed OHC MTCs using FM1-43FX, based on prior literature (Meyers et al., 2003; Taylor et al., 2008; Nakanishi et al., 2018). siCaMKKβ was delivered through the posterior semicircular canal (PSC) 48 h before application of FM1-43 to measure MTC function in OHCs. […] Scale bar=10 μm.
Since aminoglycoside antibiotics are known to enter outer hair cells (OHCs) mainly through mechanotransduction channels (MTCs), to address if protective effects of pretreatment with siAMPKα1 is due to blockade of kanamycin and/or furosemide entering OHCs, we assessed OHC MTCs using FM1-43FX, based on prior literature (Meyers et al., 2003; Taylor et al., 2008; Nakanishi et al., 2018). siAMPKα was delivered through the posterior semicircular canal (PSC) 48 h before application of FM1-43 to measure MTC function in OHCs. […] Scale bar=10 μm.

Data set [7] has as its system IHC synapses. Nature of the data set: Noise-induced loss of IHC synapses: CtBP2/GluA2 counts. The conditions noted are these: pretreatment via intra-tympanic delivery onto the RWM; 101-dB noise; 14 d; loss at 22 and 32 kHz. As to the method: Unrestrained CBA/J male mice at the age of 12 weeks (one mouse per stainless steel wire cage, approximately 9 cm^3) were exposed to broad band noise from to 2-20 kHz at 101 dB sound pressure level (SPL) for 2 h to induce permanent threshold shifts with loss of synaptic ribbons and OHCs, but not IHCs, or 106 dB to induce permanent threshold shifts with losses of ribbons, OHCs, and IHCs by 14 d after the noise exposure. […] Audio CD sound files were created and equalized with audio editing software (Audition 3; Adobe Systems, Inc.). The background sound intensity of the environment surrounding the cages was 65 dB as measured with a sound level meter (model 1200; Quest Technologies). Sound levels for noise exposure are calibrated with a sound level meter at multiple locations within the sound chamber to ensure the uniformity of the sound field before and after exposure. […]
A procedure as previously described by Hill et al., 2016 was followed. Immunofluorescence of CtBP2 on surface preparations was quantified from original confocal images, each taken with a 63×-magnification lens under identical Z-stack conditions in […] intervals and equal parameter settings for laser gains and PMT gains. […] The number of synaptic ribbons was counted using ImageJ software (National Institutes of Health, Bethesda, Md.). […]

The test system of data set [8] is CBA/J mice. Nature of the data set: Noise-induced hearing loss (101-dB noise): DPOAE thresholds. The conditions noted are these: pretreatment via intra-tympanic delivery on RWM; 12-40 kHz; 14 d after noise exposure.
The subject of data set [9] is CBA/J mice. The data set can be described thus: Noise-induced hearing loss (101-dB broad band noise): ABR threshold shifts. The conditions noted are these: pretreatment via intra-tympanic delivery on RWM; 8, 16, and 32 kHz; 14 d after noise exposure; vs siControl. As for the experimental part: (§2) Unrestrained CBA/J male mice at the age of 12 weeks (one mouse per stainless steel wire cage, approximately 9 cm^3) were exposed to broad band noise from to 2-20 kHz at 101 dB sound pressure level (SPL) for 2 h to induce permanent threshold shifts with loss of synaptic ribbons and OHCs, but not IHCs, or 106 dB to induce permanent threshold shifts with losses of ribbons, OHCs, and IHCs by 14 d after the noise exposure. […] Audio CD sound files were created and equalized with audio editing software (Audition 3; Adobe Systems, Inc.). The background sound intensity of the environment surrounding the cages was 65 dB as measured with a sound level meter (model 1200; Quest Technologies). Sound levels for noise exposure are calibrated with a sound level meter at multiple locations within the sound chamber to ensure the uniformity of the sound field before and after exposure. Control mice were kept in silence (without use of the loudspeaker) within the same chamber for 2 h. […]
ABRs were measured in the left ears of anaesthetized mice before and two weeks after noise exposure. […] Body temperature was monitored and maintained near 37° C. with a heating pad. […] ABRs were measured at 8, 16, and 32 kHz. […] Thresholds were determined for each frequency by reducing the intensity in 10-dB increments and then in 5-dB steps near threshold until no organized responses were detected. […]

Data set [10] has as its system outer hair cells (OHCs). Nature of the data set: Noise-induced OHC loss: hair cell counts along the cochlear duct. Particulars: pretreatment via intra-tympanic delivery on RWM; 101-dB noise; 14 d after exposure. As to the method:
as §2
Images from the apex through the base of the DAB-stained preparations were captured using a 20× lens on the Zeiss microscope. The lengths of the cochlear epithelia were measured and recorded in millimeters. OHCs were counted from the apex to the base along the entire length of the mouse cochlear epithelium.

Data set [11] relates to outer hair cells (OHCs). The data set can be described thus: Kanamycin-furosemide-induced OHC loss: hair cell counts. The conditions noted are these: siRNA pretreatment via PSC; 14 d after the lesions.
Description: as §1, with “window. A customized sterile micro medical tube was inserted into the hole just above the round window niche (RWN) to slowly deliver 10 μL (0.6 μg) of siCaMKKβ or siControl. For PSC delivery, the stemocleidomastoid muscle was separated to expose the PSC. A small hole was made with the tip of a 30-G needle on the PSC and left open for about 1 min (there was no obvious endolymph leakage).” for “window.”
Images from the apex through the base of the DAB-stained preparations were captured using a 20× lens on the Zeiss microscope. The lengths of the cochlear epithelia were measured and recorded in millimeters. OHCs were counted from the apex to the base along the entire length of the mouse cochlear epithelium. […]

For the compound `[NH2][Pt]([NH2])([Cl])[Cl]` [CDDP, cisplatin], the auditory threshold shifts in [1] was 55-60 dB. In data set [2] (3 mg/kg CDDP treated group, day 8 after the treatment), the death result is “One mouse of the 3 mg/kg CDDP treated group died”. Further, the “changes in body weight” value in data set [2] (CDDP at and above 3 mg/kg, day 7 post treatment vs beginning of the treatment) is given as “loss of body weight”; in data set [2] (CDDP at doses below or equal 2.5 mg/kg), “no significant changes”.

Turning to `NC[C@H]1O[C@H](O[C@H]2[C@H](O)[C@@H](O[C@H]3O[C@H](CO)[C@@H](O)[C@H](N)[C@H]3O)[C@H](N)C[C@@H]2N)[C@H](O)[C@@H](O)[C@@H]1O` [KM, kanamycin, reference compound], the “hearing loss / auditory threshold shifts (in words)” value in data set [3] is given as “does not induce hearing loss”.

Turning to `NS(=O)(=O)c1cc(C(=O)O)c(NCc2ccco2)cc1Cl` [furosemide, reference compound], in [3], the “hearing loss / auditory threshold shifts (in words)” value is “does not induce hearing loss”.

Take “siCaMKKβ: CaMKKβ siRNA (Thermo Fisher, #n437808); sense GAGCACAAAUAAUUGUUUUTT SEQ ID NO: 1; antisense AAAACAAUUAUUUGUGCUCTA SEQ ID NO: 2 (chemistry not given here)”: the “KM-furosemide-induced reduction of DPOAE (damage to OHC function)” value in data set [4] is “completely prevented”. Besides, the figures for the “decrease of CaMKKβ immunolabeling in grayscale in OHCs compared to siControls” value in data set [5] (72 h after PSC delivery) and in [5] (72 h after intra-tympanic delivery onto the RWM) were “about 90%” and “about 40%”, respectively. Further, in [6], the “FM1-43 uptake into OHCs compared with siControl mice” value is given as “does not change”. Further, the “noise-induced loss of synapses (CtBP2/GluA2)” value in data set [7] is recorded as “prevented”. For the same compound, the “101-dB-noise-increased DPOAE thresholds” value in data set [8] is recorded as “significantly attenuates”. Besides, the “threshold shifts induced by exposure to 101-dB noise” value in data set [9] is “significantly decreases”. In addition, the “noise-induced OHC loss” value in data set [10] is “significantly reduced”. Besides, the “KM-furosemide-induced OHC loss” value in [11] is recorded as “completely prevents”. Further, the “KM-furosemide-induced auditory threshold shifts” value was “completely prevented” in data set [3] (siRNA pretreatment via PSC) and “significant reduction” in data set [3] (siRNA pretreatment via intra-tympanic delivery onto the RWM).

The values are drawn from US20230022117A1, “RNAi-BASED TARGETING COMPOUNDS AND USES THEREOF TO PREVENT ACQUIRED HEARING LOSS” (MUSC FOUNDATION FOR RESEARCH DEVELOPMENT, priority 2019, published 2023).
